ChEMBL document CHEMBL4507263, “Data for DCP probe BAY-474” (2021)

Columns and labels:
[1] = biological target: RAF proto-oncogene serine/threonine-protein kinase (Homo sapiens) (UniProt P04049); experiment: c-RAF (h) Millipore kinase activity assay; conditions: Compound concentration 1.0 uM
[2] = biological target: Ephrin type-B receptor 4 (Homo sapiens) (UniProt P54760); experiment: EphB4 (h) Millipore kinase activity assay; conditions: Compound concentration 1.0 uM
[3] = biological target: Fibroblast growth factor receptor 3 (Homo sapiens) (UniProt P22607); experiment: FGFR3 (h) Millipore kinase activity assay; conditions: Compound concentration 1.0 uM
[4] = biological target: Glycogen synthase kinase-3 alpha (Homo sapiens) (UniProt P49840); experiment: GSK3alpha (h) Millipore kinase activity assay; conditions: Compound concentration 1.0 uM
[5] = biological target: Protein kinase C iota type (Homo sapiens) (UniProt P41743); experiment: PKCiota (h) Millipore kinase activity assay; conditions: Compound concentration 1.0 uM
[6] = biological target: Serine/threonine-protein kinase Sgk3 (Homo sapiens) (UniProt Q96BR1); experiment: SGK3 (h) Millipore kinase activity assay; conditions: Compound concentration 1.0 uM
[7] = biological target: T1, Alpha-1D adrenergic receptor (Homo sapiens) (UniProt P25100); experiment: Inhibition of Adrenergic alpha1D at 10 µM in the Eurofins-Panlabs radioligand binding assay (Eurofins_assay_203400); conditions: Compound concentration 10.0 uM
T1 sequence (whole entry): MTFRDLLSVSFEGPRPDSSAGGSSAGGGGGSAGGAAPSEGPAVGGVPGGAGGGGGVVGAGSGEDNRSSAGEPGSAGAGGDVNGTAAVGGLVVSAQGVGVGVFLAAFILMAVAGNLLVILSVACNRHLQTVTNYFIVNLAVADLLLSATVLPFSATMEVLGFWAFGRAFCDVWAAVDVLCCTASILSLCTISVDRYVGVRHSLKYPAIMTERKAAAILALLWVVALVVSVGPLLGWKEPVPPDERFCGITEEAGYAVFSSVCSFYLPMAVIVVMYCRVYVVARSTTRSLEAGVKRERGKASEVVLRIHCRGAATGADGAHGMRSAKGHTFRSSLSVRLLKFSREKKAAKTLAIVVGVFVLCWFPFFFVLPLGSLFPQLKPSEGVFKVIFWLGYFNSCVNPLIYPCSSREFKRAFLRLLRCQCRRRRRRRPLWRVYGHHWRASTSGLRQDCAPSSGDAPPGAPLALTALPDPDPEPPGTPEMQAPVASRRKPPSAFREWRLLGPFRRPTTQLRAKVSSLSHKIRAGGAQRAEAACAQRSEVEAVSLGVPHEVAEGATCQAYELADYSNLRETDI

[8] = biological target: Platelet-activating factor receptor (Homo sapiens) (UniProt P25105); experiment: Inhibition of Platelet Activating Factor (PAF) at 10 µM in the Eurofins-Panlabs radioligand binding assay (Eurofins_assay_265010); conditions: Compound concentration 10.0 uM
[9] = biological target: Sigma non-opioid intracellular receptor 1 (Homo sapiens) (UniProt Q99720); experiment: Sigma 1 Eurofins-Panlabs radioligand binding assay; design: ligand concentration 8 nM; conditions: Compound concentration 10.0 uM
[10] = biological target: Phosphorylase b kinase gamma catalytic chain, liver/testis isoform (Homo sapiens) (UniProt P15735); experiment: PhKgamma2 (h) Millipore kinase activity assay; conditions: Compound concentration 1.0 uM
[11] = biological target: RAC-alpha serine/threonine-protein kinase (Homo sapiens) (UniProt P31749); conditions: Compound concentration 1000.0 nM
[12] = biological target: 5'-AMP-activated protein kinase catalytic subunit alpha-1 (Homo sapiens) (UniProt Q13131); conditions: Compound concentration 1000.0 nM
[13] = biological target: Calcium/calmodulin-dependent protein kinase type 1D (Homo sapiens) (UniProt Q8IU85); conditions: Compound concentration 1000.0 nM
[14] = biological target: Cyclin-dependent kinase 3 (Homo sapiens) (UniProt Q00526); conditions: Compound concentration 1000.0 nM
[15] = biological target: Cyclin-dependent kinase-like 2 (Homo sapiens) (UniProt Q92772); conditions: Compound concentration 1000.0 nM
[16] = biological target: Serine/threonine-protein kinase Chk1 (Homo sapiens) (UniProt O14757); conditions: Compound concentration 1000.0 nM
[17] = biological target: Dual specificity protein kinase CLK3 (Homo sapiens) (UniProt P49761); conditions: Compound concentration 1000.0 nM
[18] = biological target: Death-associated protein kinase 3 (Homo sapiens) (UniProt O43293); conditions: Compound concentration 1000.0 nM
[19] = tested on: Epidermal growth factor receptor (Homo sapiens), P00533 [UNDEFINED MUTATION]; conditions: Compound concentration 1000.0 nM
[20] = tested on: Epidermal growth factor receptor (Homo sapiens), P00533 [UNDEFINED MUTATION]; conditions: Compound concentration 1000.0 nM; remark: listed apart in the source
[21] = tested on: Epidermal growth factor receptor (Homo sapiens), P00533 [L861Q]; conditions: Compound concentration 1000.0 nM
[22] = tested on: Receptor-type tyrosine-protein kinase FLT3 (Homo sapiens), P36888 [R834Q]; conditions: Compound concentration 1000.0 nM
[23] = biological target: Rhodopsin kinase GRK1 (Homo sapiens) (UniProt Q15835); conditions: Compound concentration 1000.0 nM
[24] = biological target: Rhodopsin kinase GRK7 (Homo sapiens) (UniProt Q8WTQ7); conditions: Compound concentration 1000.0 nM
[25] = biological target: Myosin light chain kinase family member 4 (Homo sapiens) (UniProt Q86YV6); conditions: Compound concentration 1000.0 nM
[26] = biological target: Serine/threonine-protein kinase 38-like (Homo sapiens) (UniProt Q9Y2H1); conditions: Compound concentration 1000.0 nM
[27] = biological target: Serine/threonine-protein kinase Nek10 (Homo sapiens) (UniProt Q6ZWH5); conditions: Compound concentration 1000.0 nM
[28] = biological target: Mitogen-activated protein kinase kinase kinase 14 (Homo sapiens) (UniProt Q99558); conditions: Compound concentration 1000.0 nM
[29] = biological target: Serine/threonine-protein kinase NIM1 (Homo sapiens) (UniProt Q8IY84); conditions: Compound concentration 1000.0 nM
[30] = biological target: Mitogen-activated protein kinase 13 (Homo sapiens) (UniProt O15264); conditions: Compound concentration 1000.0 nM
[31] = biological target: Cyclin-dependent kinase 15 (Homo sapiens) (UniProt Q96Q40); conditions: Compound concentration 1000.0 nM
[32] = tested on: Phosphatidylinositol 4,5-bisphosphate 3-kinase catalytic subunit alpha isoform (Homo sapiens), P42336 [E545K]; conditions: Compound concentration 1000.0 nM
[33] = biological target: Serine/threonine-protein kinase N1 (Homo sapiens) (UniProt Q16512); conditions: Compound concentration 1000.0 nM
[34] = biological target: Serine/threonine-protein kinase PLK2 (Homo sapiens) (UniProt Q9NYY3); conditions: Compound concentration 1000.0 nM
[35] = biological target: Ribosomal protein S6 kinase alpha-5 (Homo sapiens) (UniProt O75582); conditions: Compound concentration 1000.0 nM
[36] = biological target: Ribosomal protein S6 kinase alpha-1 (Homo sapiens) (UniProt Q15418); conditions: Compound concentration 1000.0 nM

Sequence of RAF proto-oncogene serine/threonine-protein kinase (Homo sapiens) (P04049 whole entry): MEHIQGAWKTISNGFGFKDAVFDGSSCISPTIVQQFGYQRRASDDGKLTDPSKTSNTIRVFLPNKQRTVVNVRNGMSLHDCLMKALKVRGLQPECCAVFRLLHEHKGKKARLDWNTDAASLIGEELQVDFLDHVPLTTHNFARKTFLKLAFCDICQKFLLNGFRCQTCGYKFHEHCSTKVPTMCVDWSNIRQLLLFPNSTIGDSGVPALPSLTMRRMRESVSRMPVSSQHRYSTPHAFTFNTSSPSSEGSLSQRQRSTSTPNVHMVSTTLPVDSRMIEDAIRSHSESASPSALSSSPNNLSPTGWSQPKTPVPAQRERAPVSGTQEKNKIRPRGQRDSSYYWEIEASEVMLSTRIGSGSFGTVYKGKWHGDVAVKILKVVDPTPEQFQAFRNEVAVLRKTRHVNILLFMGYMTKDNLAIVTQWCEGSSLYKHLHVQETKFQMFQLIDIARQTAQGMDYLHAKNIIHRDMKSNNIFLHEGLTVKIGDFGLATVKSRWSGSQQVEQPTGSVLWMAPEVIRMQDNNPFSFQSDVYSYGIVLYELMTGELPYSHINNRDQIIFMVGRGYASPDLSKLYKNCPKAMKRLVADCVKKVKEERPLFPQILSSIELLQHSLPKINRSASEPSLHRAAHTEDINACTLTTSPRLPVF
Sequence of Phosphorylase b kinase gamma catalytic chain, liver/testis isoform (Homo sapiens) (P15735 whole entry, looked up, canonical isoform): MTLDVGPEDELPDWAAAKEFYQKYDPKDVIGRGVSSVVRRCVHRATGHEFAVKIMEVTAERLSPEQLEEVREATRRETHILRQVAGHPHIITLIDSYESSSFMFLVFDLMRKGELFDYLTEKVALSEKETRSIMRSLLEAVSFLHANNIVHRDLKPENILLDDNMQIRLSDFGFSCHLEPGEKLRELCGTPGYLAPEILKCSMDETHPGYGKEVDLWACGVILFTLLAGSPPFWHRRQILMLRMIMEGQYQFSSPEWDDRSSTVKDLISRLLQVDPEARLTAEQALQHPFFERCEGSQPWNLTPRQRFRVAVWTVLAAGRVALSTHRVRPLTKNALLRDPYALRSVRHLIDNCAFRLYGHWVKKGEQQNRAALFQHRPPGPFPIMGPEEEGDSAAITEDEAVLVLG
Sequence of Sigma non-opioid intracellular receptor 1 (Homo sapiens) (Q99720 whole entry, canonical isoform): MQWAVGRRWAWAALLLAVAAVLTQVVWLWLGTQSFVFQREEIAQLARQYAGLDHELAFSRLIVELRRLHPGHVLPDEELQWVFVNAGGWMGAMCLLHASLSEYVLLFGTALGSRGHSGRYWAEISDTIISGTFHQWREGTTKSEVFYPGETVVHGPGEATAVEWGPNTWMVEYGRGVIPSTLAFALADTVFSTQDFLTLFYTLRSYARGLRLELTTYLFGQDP
Sequence of Mitogen-activated protein kinase 13 (Homo sapiens) (O15264 whole entry): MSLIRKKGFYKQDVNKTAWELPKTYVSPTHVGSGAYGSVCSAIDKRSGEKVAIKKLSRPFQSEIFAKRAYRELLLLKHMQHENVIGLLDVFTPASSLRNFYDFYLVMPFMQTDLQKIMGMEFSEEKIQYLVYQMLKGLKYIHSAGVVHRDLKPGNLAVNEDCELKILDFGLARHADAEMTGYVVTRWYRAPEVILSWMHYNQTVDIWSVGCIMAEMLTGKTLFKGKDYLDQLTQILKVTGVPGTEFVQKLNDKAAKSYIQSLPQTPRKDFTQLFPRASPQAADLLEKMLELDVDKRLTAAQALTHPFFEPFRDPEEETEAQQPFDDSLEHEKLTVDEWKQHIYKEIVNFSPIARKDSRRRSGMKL
Sequence of Cyclin-dependent kinase 15 (Homo sapiens) (Q96Q40 whole entry, canonical isoform): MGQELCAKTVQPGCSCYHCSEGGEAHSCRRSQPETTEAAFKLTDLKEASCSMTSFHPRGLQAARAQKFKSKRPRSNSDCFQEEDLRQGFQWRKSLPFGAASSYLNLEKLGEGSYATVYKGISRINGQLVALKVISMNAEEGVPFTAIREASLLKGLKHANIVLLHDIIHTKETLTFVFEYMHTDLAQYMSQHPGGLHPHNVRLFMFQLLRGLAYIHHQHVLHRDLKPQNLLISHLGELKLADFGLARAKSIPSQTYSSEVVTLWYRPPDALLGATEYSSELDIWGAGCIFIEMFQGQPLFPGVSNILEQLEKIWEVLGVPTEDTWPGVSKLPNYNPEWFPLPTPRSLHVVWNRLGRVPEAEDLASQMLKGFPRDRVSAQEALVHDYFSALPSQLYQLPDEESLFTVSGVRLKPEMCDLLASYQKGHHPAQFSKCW
Sequence of Serine/threonine-protein kinase PLK2 (Homo sapiens) (Q9NYY3 whole entry, looked up): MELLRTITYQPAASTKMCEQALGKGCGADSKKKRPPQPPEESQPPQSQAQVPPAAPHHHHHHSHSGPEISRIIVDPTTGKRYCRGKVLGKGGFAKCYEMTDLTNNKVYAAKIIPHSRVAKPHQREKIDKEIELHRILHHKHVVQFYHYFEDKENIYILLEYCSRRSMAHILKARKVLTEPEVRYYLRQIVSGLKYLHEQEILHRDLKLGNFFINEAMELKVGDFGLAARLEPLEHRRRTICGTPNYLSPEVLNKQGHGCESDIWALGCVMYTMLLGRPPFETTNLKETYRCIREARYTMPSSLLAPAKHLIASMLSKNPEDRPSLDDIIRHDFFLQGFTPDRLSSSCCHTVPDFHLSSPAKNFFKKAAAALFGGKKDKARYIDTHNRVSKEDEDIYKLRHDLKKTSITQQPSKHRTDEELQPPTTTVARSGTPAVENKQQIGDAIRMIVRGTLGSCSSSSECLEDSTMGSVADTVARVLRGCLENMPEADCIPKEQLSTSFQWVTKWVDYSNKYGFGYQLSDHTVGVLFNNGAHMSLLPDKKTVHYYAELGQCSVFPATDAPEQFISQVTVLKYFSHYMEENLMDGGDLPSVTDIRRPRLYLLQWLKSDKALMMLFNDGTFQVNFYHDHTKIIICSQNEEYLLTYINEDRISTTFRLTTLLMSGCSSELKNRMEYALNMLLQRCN
Sequence of Serine/threonine-protein kinase Sgk3 (Homo sapiens) (Q96BR1 whole entry): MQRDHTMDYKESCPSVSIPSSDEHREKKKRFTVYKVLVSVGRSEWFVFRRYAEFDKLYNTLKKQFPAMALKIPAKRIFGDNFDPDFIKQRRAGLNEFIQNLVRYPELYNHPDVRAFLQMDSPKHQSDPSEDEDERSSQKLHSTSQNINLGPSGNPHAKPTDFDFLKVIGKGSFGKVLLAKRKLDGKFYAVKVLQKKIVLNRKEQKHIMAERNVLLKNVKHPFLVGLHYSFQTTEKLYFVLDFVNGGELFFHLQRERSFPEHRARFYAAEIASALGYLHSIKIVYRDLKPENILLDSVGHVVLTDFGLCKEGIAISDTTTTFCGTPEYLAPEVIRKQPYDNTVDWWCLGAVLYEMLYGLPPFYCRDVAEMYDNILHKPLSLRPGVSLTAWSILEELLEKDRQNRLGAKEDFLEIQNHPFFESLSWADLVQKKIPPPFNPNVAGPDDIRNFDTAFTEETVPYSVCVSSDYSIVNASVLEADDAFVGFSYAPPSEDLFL
Sequence of Rhodopsin kinase GRK7 (Homo sapiens) (Q8WTQ7 whole entry): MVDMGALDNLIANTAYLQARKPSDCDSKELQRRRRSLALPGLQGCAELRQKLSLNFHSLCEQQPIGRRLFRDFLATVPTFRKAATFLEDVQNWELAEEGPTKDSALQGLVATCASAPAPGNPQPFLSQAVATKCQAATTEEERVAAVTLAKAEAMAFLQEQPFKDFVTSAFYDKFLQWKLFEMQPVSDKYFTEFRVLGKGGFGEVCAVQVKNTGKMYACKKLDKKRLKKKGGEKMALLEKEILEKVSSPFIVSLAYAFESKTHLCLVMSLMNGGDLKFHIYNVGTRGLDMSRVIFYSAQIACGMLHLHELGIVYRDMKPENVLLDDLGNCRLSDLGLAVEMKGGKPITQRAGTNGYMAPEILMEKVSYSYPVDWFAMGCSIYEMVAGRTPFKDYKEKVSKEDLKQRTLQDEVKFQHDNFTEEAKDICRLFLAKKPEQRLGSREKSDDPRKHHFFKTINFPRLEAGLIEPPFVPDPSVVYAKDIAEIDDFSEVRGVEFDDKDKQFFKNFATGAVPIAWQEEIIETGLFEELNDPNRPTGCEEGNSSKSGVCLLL
Sequence of Death-associated protein kinase 3 (Homo sapiens) (O43293 whole entry, looked up): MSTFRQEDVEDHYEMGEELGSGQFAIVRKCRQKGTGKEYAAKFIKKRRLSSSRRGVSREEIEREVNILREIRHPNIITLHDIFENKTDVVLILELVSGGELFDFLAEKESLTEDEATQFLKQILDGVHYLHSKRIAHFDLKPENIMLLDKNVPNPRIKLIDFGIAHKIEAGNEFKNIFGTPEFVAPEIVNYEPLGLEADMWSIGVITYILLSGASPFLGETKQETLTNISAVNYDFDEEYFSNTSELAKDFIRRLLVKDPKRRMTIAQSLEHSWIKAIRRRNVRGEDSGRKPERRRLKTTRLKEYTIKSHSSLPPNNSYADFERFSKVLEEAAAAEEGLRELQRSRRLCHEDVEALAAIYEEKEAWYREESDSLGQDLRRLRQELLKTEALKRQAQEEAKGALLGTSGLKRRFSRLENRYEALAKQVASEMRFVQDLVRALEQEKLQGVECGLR
Sequence of Platelet-activating factor receptor (Homo sapiens) (P25105 whole entry): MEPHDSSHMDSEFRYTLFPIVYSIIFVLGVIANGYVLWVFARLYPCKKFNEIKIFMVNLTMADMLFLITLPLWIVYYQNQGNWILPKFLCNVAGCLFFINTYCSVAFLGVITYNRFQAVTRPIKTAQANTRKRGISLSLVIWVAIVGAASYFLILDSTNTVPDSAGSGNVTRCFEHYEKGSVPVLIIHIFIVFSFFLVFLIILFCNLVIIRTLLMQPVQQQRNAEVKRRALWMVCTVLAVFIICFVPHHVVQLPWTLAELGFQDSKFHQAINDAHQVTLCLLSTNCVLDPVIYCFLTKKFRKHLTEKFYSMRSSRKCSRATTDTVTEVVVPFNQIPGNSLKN
Sequence of Cyclin-dependent kinase 3 (Homo sapiens) (Q00526 whole entry, looked up): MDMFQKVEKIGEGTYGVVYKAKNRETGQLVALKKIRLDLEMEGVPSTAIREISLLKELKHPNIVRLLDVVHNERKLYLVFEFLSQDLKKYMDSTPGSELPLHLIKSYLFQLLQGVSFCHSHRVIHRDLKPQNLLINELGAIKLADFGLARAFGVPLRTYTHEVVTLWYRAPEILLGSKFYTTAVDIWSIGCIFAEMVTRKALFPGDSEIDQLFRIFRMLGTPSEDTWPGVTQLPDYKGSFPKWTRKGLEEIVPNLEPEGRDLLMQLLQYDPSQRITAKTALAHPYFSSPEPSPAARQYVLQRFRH

CC1=C(C#N)C(c2ccc3[nH]nc(C)c3c2)C(C#N)=C(C)N1 [BAY-474]
inactive: inhibition [1] 1% | inhibition [2] -4% | inhibition [3] 10% | inhibition [4] -3% | inhibition [5] -7% | inhibition [6] -2% | inhibition [7] -9% | inhibition [8] 6% | inhibition [9] 15% | inhibition [10] -10%

CC1=C(C#N)[C@@H](c2ccc3[nH]nc(C)c3c2)C(C#N)=C(c2ccc(Cl)cc2)N1 [BAY-827]
inactive: residual activity [11] 100% | residual activity [12] 100% | residual activity [13] 100% | residual activity [14] 100% | residual activity [15] 97.9% | residual activity [16] 100% | residual activity [17] 100% | residual activity [18] 100% | residual activity [19] 80.4% | residual activity [20] 79.5% | residual activity [21] 100% | residual activity [22] 100% | residual activity [23] 65.5% | residual activity [24] 100% | residual activity [25] 100% | residual activity [26] 100% | residual activity [27] 59.6% | residual activity [28] 100% | residual activity [29] 100% | residual activity [30] 100% | residual activity [31] 75.4% | residual activity [32] 74.9% | residual activity [33] 91.4% | residual activity [34] 100% | residual activity [35] 100% | residual activity [36] 100%
